Reference: paper PMC4932917, “Structural basis for acyl-group discrimination by human Gcn5L2” (Acta Crystallographica. Section D, Structural Biology, 2016)

Target: T1, human Gcn5L2 (hsGcn5L2) (Homo sapiens, UniProt Q92830)
T1 construct: gene KAT2A; catalytic domain, amino acids 497–662
Experiment: X-ray crystal structure ([…] Å); Ki from enzyme-coupled acetylation assay on purified catalytic domain
Type: biochemical

T1 sequence (Q92830 497-662): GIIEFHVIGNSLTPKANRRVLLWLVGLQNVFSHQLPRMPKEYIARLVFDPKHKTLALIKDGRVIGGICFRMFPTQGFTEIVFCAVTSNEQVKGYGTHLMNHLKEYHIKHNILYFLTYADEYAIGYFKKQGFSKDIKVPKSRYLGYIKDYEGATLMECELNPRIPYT

## CCCC(=O)SCCNC(=O)CCNC(=O)[C@H](O)C(C)(C)COP(=O)(O)OP(=O)(O)OC[C@H]1O[C@@H](n2cnc3c(N)ncnc32)[C@H](O)[C@@H]1OP(=O)(O)O [butyryl-CoA]
  Ki: 5.6 ± 0.7 µM
